In ChEMBL document CHEMBL3885861, “Open TG-GATES”:

Species on record: Rattus norvegicus
Assay: Open TG-GATES - Regimen: Daily Repeat
Format: toxicity, organism-based, Sprague-Dawley
Parameters: regimen Daily Repeat, gender Male, age 6 weeks
Settings: in vivo, po, route gavage; for APTT / Bas / Eos / Fbg / Hb / Ht / Lym / MCH / MCHC / MCV / Mono / Neu / PT / Plat / RBC / Ret / WBC: tissue Blood; for KIDNEY_L / KIDNEY_R / KIDNEY_TOTAL: tissue Kidney; for LIVER: tissue Liver; for A/G / ALP / ALT / AST / BUN / CRE / Ca / Cl / DBIL / GLC / IP / K / LDH / Na / PL / RALB / TBIL / TC / TG / TP / gamma-GTP: tissue Plasma
[1] = 0 mg/kg, 72 h, dose level Control, time 3 day
[2] = 0 mg/kg, […], dose level Control, time 7 day
[3] = 0 mg/kg, […], dose level Control, time 14 day
[4] = 0 mg/kg, […], dose level Control, time 28 day
[5] = 100 mg/kg, 72 h, dose level Low, time 3 day
[6] = 100 mg/kg, […], dose level Low, time 7 day
[7] = 100 mg/kg, […], dose level Low, time 14 day
[8] = 100 mg/kg, […], dose level Low, time 28 day

## O=C(N[C@H](CO)[C@H](O)c1ccc([N+](=O)[O-])cc1)C(Cl)Cl [CHLORAMPHENICOL]
[1]
  TERMINAL_BW: 250.4 g
  APTT: 17.1 s
  Bas: 0%
  Eos: 1.2%
  Fbg: 270.4 mg/dL
  Hb: 13.1 g/dL
  Ht: 40.4%
  Lym: 71.6%
  MCH: 21.5 pg
  MCHC: 32.4%
  MCV: 66.2 fL
  Mono: 3%
  Neu: 23.8%
  PT: 14.4 s
  Plat: 109.8 x10_4/uL
  RBC: 611.2 x10_4/ul
  Ret: 7%
  WBC: 78.3 x10_2/uL
  KIDNEY_L: 1.1 g
  KIDNEY_R: 1.1 g
  KIDNEY_TOTAL: 2.2 g
  LIVER: 12.4 g
  A/G: 0.9
  ALP: 1702 IU/L
  ALT: 44 IU/L
  AST: 66.4 IU/L
  BUN: 15 mg/dL
  CRE: 0.2 mg/dL
  Ca: 11.3 mg/dL
  Cl: 105 meq/L
  DBIL: 0.022 mg/dL
  GLC: 186.8 mg/dL
  IP: 7.1 mg/dL
  K: 4.1 meq/L
  LDH: 80.8 IU/L
  Na: 140.4 meq/L
  PL: 154 mg/dL
  RALB: 2.7 g/dL
  TBIL: 0.048 mg/dL
  TC: 78.4 mg/dL
  TG: 127.6 mg/dL
  TP: 5.7 g/dL
  gamma-GTP: 1.2 IU/L
[2]
  TERMINAL_BW: 289.7 g
  APTT: 17.6 s
  Bas: 0%
  Eos: 0.8%
  Fbg: 274.8 mg/dL
  Hb: 13.7 g/dL
  Ht: 42%
  Lym: 77.8%
  MCH: 21.4 pg
  MCHC: 32.6%
  MCV: 65.7 fL
  Mono: 2.6%
  Neu: 18.2%
  PT: 14.1 s
  Plat: 131.7 x10_4/uL
  RBC: 640.6 x10_4/ul
  Ret: 5.6%
  WBC: 92.1 x10_2/uL
  KIDNEY_L: 1.2 g
  KIDNEY_R: 1.2 g
  KIDNEY_TOTAL: 2.4 g
  LIVER: 13.8 g
  A/G: 0.9
  ALP: 1839.2 IU/L
  ALT: 44.4 IU/L
  AST: 69.4 IU/L
  BUN: 15.4 mg/dL
  CRE: 0.2 mg/dL
  Ca: 11.3 mg/dL
  Cl: 106.4 meq/L
  DBIL: 0.024 mg/dL
  GLC: 188.8 mg/dL
  IP: 7.5 mg/dL
  K: 3.9 meq/L
  LDH: 64.2 IU/L
  Na: 143.2 meq/L
  PL: 162.2 mg/dL
  RALB: 2.7 g/dL
  TBIL: 0.052 mg/dL
  TC: 79 mg/dL
  TG: 140.4 mg/dL
  TP: 5.9 g/dL
  gamma-GTP: 1.2 IU/L
[3]
  TERMINAL_BW: 334.8 g
  APTT: 16.9 s
  Bas: 0%
  Eos: 1%
  Fbg: 272 mg/dL
  Hb: 14.6 g/dL
  Ht: 44.5%
  Lym: 78.4%
  MCH: 20.3 pg
  MCHC: 32.6%
  MCV: 62.3 fL
  Mono: 2.2%
  Neu: 18%
  PT: 14.8 s
  Plat: 122.4 x10_4/uL
  RBC: 715.4 x10_4/ul
  Ret: 3.8%
  WBC: 90.5 x10_2/uL
  KIDNEY_L: 1.3 g
  KIDNEY_R: 1.3 g
  KIDNEY_TOTAL: 2.6 g
  LIVER: 13.9 g
  A/G: 0.8
  ALP: 1466.2 IU/L
  ALT: 37.2 IU/L
  AST: 63.6 IU/L
  BUN: 17.2 mg/dL
  CRE: 0.2 mg/dL
  Ca: 11.1 mg/dL
  Cl: 107.2 meq/L
  DBIL: 0.024 mg/dL
  GLC: 187.6 mg/dL
  IP: 6.5 mg/dL
  K: 4.5 meq/L
  LDH: 59 IU/L
  Na: 143 meq/L
  PL: 151.6 mg/dL
  RALB: 2.7 g/dL
  TBIL: 0.05 mg/dL
  TC: 63.6 mg/dL
  TG: 189.6 mg/dL
  TP: 6 g/dL
  gamma-GTP: 1 IU/L
[4]
  TERMINAL_BW: 425.6 g
  APTT: 18.3 s
  Bas: 0%
  Eos: 1.6%
  Fbg: 259 mg/dL
  Hb: 15.5 g/dL
  Ht: 45.1%
  Lym: 77.4%
  MCH: 20 pg
  MCHC: 34.3%
  MCV: 58.3 fL
  Mono: 1.8%
  Neu: 18.4%
  PT: 14.8 s
  Plat: 93.9 x10_4/uL
  RBC: 773 x10_4/ul
  Ret: 2.2%
  WBC: 79.4 x10_2/uL
  KIDNEY_L: 1.4 g
  KIDNEY_R: 1.4 g
  KIDNEY_TOTAL: 2.8 g
  LIVER: 17 g
  A/G: 0.8
  ALP: 1089.6 IU/L
  ALT: 36.4 IU/L
  AST: 60 IU/L
  BUN: 17 mg/dL
  CRE: 0.2 mg/dL
  Ca: 11 mg/dL
  Cl: 104.4 meq/L
  DBIL: 0.018 mg/dL
  GLC: 193.4 mg/dL
  IP: 6.2 mg/dL
  K: 3.7 meq/L
  LDH: 47.2 IU/L
  Na: 143.8 meq/L
  PL: 141.4 mg/dL
  RALB: 2.7 g/dL
  TBIL: 0.054 mg/dL
  TC: 66 mg/dL
  TG: 136.6 mg/dL
  TP: 6.3 g/dL
  gamma-GTP: 1 IU/L
[5]
  TERMINAL_BW: 251 g
  APTT: 16.1 s
  Bas: 0%
  Eos: 1%
  Fbg: 273.2 mg/dL
  Hb: 13.3 g/dL
  Ht: 40.4%
  Lym: 79.4%
  MCH: 21.8 pg
  MCHC: 32.8%
  MCV: 66.6 fL
  Mono: 3.2%
  Neu: 16.2%
  PT: 14.7 s
  Plat: 116.8 x10_4/uL
  RBC: 607.2 x10_4/ul
  Ret: 5.4%
  WBC: 102.1 x10_2/uL
  KIDNEY_L: 1.1 g
  KIDNEY_R: 1 g
  KIDNEY_TOTAL: 2.1 g
  LIVER: 11.3 g
  A/G: 0.9
  ALP: 1563.4 IU/L
  ALT: 45 IU/L
  AST: 69.4 IU/L
  BUN: 15.6 mg/dL
  CRE: 0.2 mg/dL
  Ca: 11.1 mg/dL
  Cl: 104.6 meq/L
  DBIL: 0.02 mg/dL
  GLC: 178.4 mg/dL
  IP: 6.8 mg/dL
  K: 4.3 meq/L
  LDH: 95.6 IU/L
  Na: 141.2 meq/L
  PL: 146.8 mg/dL
  RALB: 2.5 g/dL
  TBIL: 0.054 mg/dL
  TC: 80 mg/dL
  TG: 97.6 mg/dL
  TP: 5.4 g/dL
  gamma-GTP: 0.8 IU/L
[6]
  TERMINAL_BW: 287.8 g
  APTT: 16.2 s
  Bas: 0%
  Eos: 0.8%
  Fbg: 308.8 mg/dL
  Hb: 14.2 g/dL
  Ht: 44.4%
  Lym: 78.2%
  MCH: 21.1 pg
  MCHC: 32.2%
  MCV: 65.7 fL
  Mono: 3%
  Neu: 17.4%
  PT: 14.4 s
  Plat: 131.5 x10_4/uL
  RBC: 675 x10_4/ul
  Ret: 6%
  WBC: 90.7 x10_2/uL
  KIDNEY_L: 1.2 g
  KIDNEY_R: 1.2 g
  KIDNEY_TOTAL: 2.4 g
  LIVER: 12.9 g
  A/G: 0.8
  ALP: 1500.2 IU/L
  ALT: 49 IU/L
  AST: 71.2 IU/L
  BUN: 13.6 mg/dL
  CRE: 0.2 mg/dL
  Ca: 11.7 mg/dL
  Cl: 106.2 meq/L
  DBIL: 0.026 mg/dL
  GLC: 189.6 mg/dL
  IP: 8.3 mg/dL
  K: 4.2 meq/L
  LDH: 65.8 IU/L
  Na: 144.2 meq/L
  PL: 156.2 mg/dL
  RALB: 2.7 g/dL
  TBIL: 0.062 mg/dL
  TC: 82.6 mg/dL
  TG: 72.4 mg/dL
  TP: 5.9 g/dL
  gamma-GTP: 1.2 IU/L
[7]
  TERMINAL_BW: 333.6 g
  APTT: 14.7 s
  Bas: 0%
  Eos: 1.4%
  Fbg: 297.8 mg/dL
  Hb: 14.1 g/dL
  Ht: 43.4%
  Lym: 78%
  MCH: 20.2 pg
  MCHC: 32.5%
  MCV: 62.1 fL
  Mono: 2.4%
  Neu: 18%
  PT: 14.5 s
  Plat: 121.6 x10_4/uL
  RBC: 698.2 x10_4/ul
  Ret: 3.8%
  WBC: 96.2 x10_2/uL
  KIDNEY_L: 1.3 g
  KIDNEY_R: 1.3 g
  KIDNEY_TOTAL: 2.6 g
  LIVER: 14.9 g
  A/G: 0.8
  ALP: 1535.2 IU/L
  ALT: 41.8 IU/L
  AST: 67.4 IU/L
  BUN: 16 mg/dL
  CRE: 0.2 mg/dL
  Ca: 11.2 mg/dL
  Cl: 105 meq/L
  DBIL: 0.022 mg/dL
  GLC: 191 mg/dL
  IP: 6.5 mg/dL
  K: 3.8 meq/L
  LDH: 54.8 IU/L
  Na: 142.8 meq/L
  PL: 157.4 mg/dL
  RALB: 2.6 g/dL
  TBIL: 0.05 mg/dL
  TC: 77.8 mg/dL
  TG: 133 mg/dL
  TP: 5.8 g/dL
  gamma-GTP: 1 IU/L
[8]
  TERMINAL_BW: 409.6 g
  APTT: 16.5 s
  Bas: 0%
  Eos: 1%
  Fbg: 278 mg/dL
  Hb: 14.9 g/dL
  Ht: 43.7%
  Lym: 81%
  MCH: 19.5 pg
  MCHC: 34.2%
  MCV: 57 fL
  Mono: 1.2%
  Neu: 15.8%
  PT: 14.8 s
  Plat: 106 x10_4/uL
  RBC: 767.4 x10_4/ul
  Ret: 2.3%
  WBC: 79.5 x10_2/uL
  KIDNEY_L: 1.6 g
  KIDNEY_R: 1.5 g
  KIDNEY_TOTAL: 3.1 g
  LIVER: 16.8 g
  A/G: 0.8
  ALP: 1164.4 IU/L
  ALT: 39.2 IU/L
  AST: 61.4 IU/L
  BUN: 16.4 mg/dL
  CRE: 0.2 mg/dL
  Ca: 10.9 mg/dL
  Cl: 104.4 meq/L
  DBIL: 0.02 mg/dL
  GLC: 171.2 mg/dL
  IP: 6.1 mg/dL
  K: 3.5 meq/L
  LDH: 44.6 IU/L
  Na: 144.2 meq/L
  PL: 152.2 mg/dL
  RALB: 2.7 g/dL
  TBIL: 0.058 mg/dL
  TC: 75.2 mg/dL
  TG: 97.6 mg/dL
  TP: 6.2 g/dL
  gamma-GTP: 1 IU/L
